These compounds were tested against S1P1 receptor (Homo sapiens, UniProt P21453) (assay: 35S-GTPγS binding, membranes from CHO cells expressing S1P1). Settings: CHO cell membranes expressing S1P1.
Type: biochemical
Protocol: Receptor binding assay: Membranes were prepared from CHO cells expressing S1P1 or S1P3 for use in ligand and 35S-GTPTS binding studies. Cells were suspended in 50 mM TRIS, pH 7.4, 2 mM EDTA, 250 mM Sucrose (buffer A) and 1× Complete protease inhibitor cocktail (Roche), and disrupted at 4° C. by nitrogen decompression using a cell disruption bomb (Parr Instrument). Following centrifugation at 1000 RPM for 10 min at 4° C., the supernatant was suspended in buffer A and centrifuged again at 19000 RPM for 60 min at 4° C. The pellet was then suspended in 10 mM HEPES, pH 7.4, 1 mM EDTA, 250 mM Sucrose (Buffer B), and 1× Complete EDTA-free protease inhibitor cocktail and homogenized using a potter. Membranes were flash frozen in liquid nitrogen and stored at −80° C. [33P]sphingosine 1-phosphate (3000 Ci/mmol; American Radiolabeled Chemicals, Inc.) was added to test compounds in DMSO. Membranes and WGA SPA beads (GE Healthcare) were added to give a final volume of 100 μl in 96-well plates with assay concentrations of […] [33P]sphingosine 1-phosphate (respectively for S1P1 or S1P3), 50 mM HEPES, pH 7.5, 5 mM MgCl2, 100 mM NaCl, 0.4% fatty acid-free BSA, 1-5 μg/well of proteins and 100 μg/well of WGA SPA beads. Binding was performed for 60 min at room temperature on a shaker and bound radioactivity was measured on a PerkinElmer 1450 MicroBeta counter. Specific binding was calculated by subtracting remaining radioactivity in the presence of 1000-fold excess of unlabeled S1P. Binding data were analyzed using the GraphPad Prism program.
Measurements of ^35S-GTPγS Binding: Membranes (1 to 10 μg protein) prepared as described above, were incubated in 96-well Scintiplates (PerkinElmer) with test compounds diluted in DMSO, in 180 μl of 20 mM HEPES, pH 7.4, 10 mM MgCl2, 2 μg/well Saponin, 0.2% fatty acid free BSA (Assay buffer), 140 mM NaCl and 1.7 μM GDP. The assay was initiated with the addition of 20 μl of 1.5 nM [35S]-GTPγS (1100 Ci/mmol; GE Healthcare) in assay buffer. After 60 min incubation at 30° C. on a shaker, plates were centrifuged for 10 min at 2000 RPM. Supernatant was discarded and membrane bound radioactivity was measured on a PerkinElmer 1450 MicroBeta counter. Triplicate samples were averaged and expressed as response relative to S1P activation in absence of compound (n=2).

Chain of S1P1 receptor (P21453 whole entry): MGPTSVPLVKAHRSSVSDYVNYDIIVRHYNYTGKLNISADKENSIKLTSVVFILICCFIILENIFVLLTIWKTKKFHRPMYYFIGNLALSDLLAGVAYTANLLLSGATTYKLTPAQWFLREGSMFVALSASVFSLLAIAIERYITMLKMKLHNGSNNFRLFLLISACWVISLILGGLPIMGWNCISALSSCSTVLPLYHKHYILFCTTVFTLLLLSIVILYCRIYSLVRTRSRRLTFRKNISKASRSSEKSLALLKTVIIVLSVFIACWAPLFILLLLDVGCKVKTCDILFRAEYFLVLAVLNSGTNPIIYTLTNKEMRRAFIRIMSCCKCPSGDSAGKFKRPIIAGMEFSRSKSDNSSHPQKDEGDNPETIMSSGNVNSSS

EC50	Compound
1.13 µM	Cc1c(-c2nc(-c3cc(F)ccc3F)no2)nnn1-c1ccccc1F [Example 2, 3-[2,5-Difluorophenyl)-5-[1-(2-fluorophenyl)-5-methyl-1H-1,2,3-triazole-4-yl]-1,2,4-oxadiazole]
2.72 µM	Cc1c(-c2nc(-c3cc(F)ccc3F)no2)nnn1-c1ccccc1Br [Example 3, 5-[1-(2-Bromophenyl)-5-methyl-1H-1,2,3-triazole-4-yl]-3-(2,5-difluorophenyl)-1,2,4-oxadiazole]
0.646 µM	O=C(O)c1ccc(-c2noc(-c3nnn(-c4ccccc4F)c3-c3ccccc3)n2)cc1F [Example 23, 2-Fluoro-4-{5-[1-(2-fluorophenyl)-5-phenyl-1H-1,2,3-triazole-4-yl]-1,2,4-oxadiazole-3-yl}benzoic acid]
1.84 µM	O=C(O)c1ccc(-c2noc(-c3nnn(-c4ccccc4F)c3-c3ccccc3)n2)cc1 [Example 24, 4-{5-[1-(2-Fluorophenyl)-5-phenyl-1H-1,2,3-triazole-4-yl]-1,2,4-oxadiazole-3-yl}benzoic acid]
1.27 µM	COc1cc(CCC(=O)O)ccc1-c1noc(-c2nnn(-c3ccccc3F)c2-c2ccccc2)n1 [Example 29, 3-(4-{5-[1-(2-Fluorophenyl)-5-phenyl-1H-1,2,3-triazole-4-yl]-1,2,4-oxadiazole-3-yl}-3-methoxyphenyl)propanoic acid]
0.709 µM	Cc1cc(CCC(=O)O)ccc1-c1noc(-c2nnn(-c3ccccc3F)c2-c2ccccc2)n1 [Example 30, 3-(4-{5-[1-(2-Fluorophenyl)-5-phenyl-1H-1,2,3-triazole-4-yl]-1,2,4-oxadiazole-3-yl}-3-methylphenyl)propanoic acid]
0.042 µM	Fc1ccccc1-n1nnc(-c2nc(-c3cccnc3)no2)c1-c1ccncc1 [Example 42, 3-{5-[1-(2-fluorophenyl)-5-pyridin-4-yl-1H-1,2,3-triazol-4-yl]-1,2,4-oxadiazol-3-yl}pyridine]
0.019 µM	Fc1ccccc1-n1nnc(-c2nc(-c3ccc4[nH]ccc4c3)no2)c1-c1ccncc1 [Example 43, 5-{5-[1-(2-fluorophenyl)-5-pyridin-4-yl-1H-1,2,3-triazol-4-yl]-1,2,4-oxadiazol-3-yl}-1H-indole]
0.053 µM	COCCc1c(-c2nc(-c3cc(F)ccc3F)no2)nnn1-c1ccccc1F [Example 44, 3-(2,5-difluorophenyl)-5-[1-(2-fluorophenyl)-5-(2-methoxyethyl)-1H-1,2,3-triazol-4-yl]-1,2,4-oxadiazole]
2.17 µM	Fc1ccccc1-n1nnc(-c2nc(-c3ccccn3)no2)c1-c1ccncc1 [Example 45, 2-{5-[1-(2-fluorophenyl)-5-pyridin-4-yl-1H-1,2,3-triazol-4-yl]-1,2,4-oxadiazol-3-yl}pyridine]
0.443 µM	COCc1c(-c2nc(-c3ccccc3OC)no2)nnn1-c1ccccc1F [Example 50, 5-[1-(2-fluorophenyl)-5-(methoxymethyl)-1H-1,2,3-triazol-4-yl]-3-(2-methoxyphenyl)-1,2,4-oxadiazole]
0.211 µM	Fc1ccccc1-c1noc(-c2nnn(-c3ccccc3F)c2C2CCCO2)n1 (stereo not drawn) [Example 53, 3-(2-fluorophenyl)-5-[1-(2-fluorophenyl)-5-(tetrahydrofuran-2-yl)-1H-1,2,3-triazol-4-yl]-1,2,4-oxadiazole]
0.953 µM	Fc1ccccc1-n1nnc(-c2nc(-c3cccnc3)no2)c1C1CCCO1 (stereo not drawn) [Example 54]
1.42 µM	CC(=O)N1CCC(c2noc(-c3nnn(-c4ccccc4F)c3-c3ccncc3)n2)CC1 [Example 55, 4-[4-[3-(1-acetylpiperidin-4-yl)-1,2,4-oxadiazol-5-yl]-1-(2-fluorophenyl)-1H-1,2,3-triazol-5-yl]pyridine]
1.85 µM	Fc1ccccc1-n1nnc(-c2nc(-c3ccncc3)no2)c1C1CCCO1 (stereo not drawn) [Example 56, 4-{5-[1-(2-fluorophenyl)-5-(tetrahydrofuran-2-yl)-1H-1,2,3-triazol-4-yl]-1,2,4-oxadiazol-3-yl}pyridine]
